The supplement of paper PMC11061612

Assays:
[1] = test system: CAL-39 (Other Solid Carcinomas); experiment: combination Emax (second highest fraction inhibited in the dose matrix, 72 h); higher = more inhibition; extreme values may be limits of the assay
In short: (§1)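 Cell lines in DMEM/F12 or RPMI with 10% FBS were plated in 1536-well plates, held 24 hours at 37°C, 5% CO2, then given two-drug dose matrices for 72 hours (DMSO typically 0.2%). Viability was read by CellTiter-Glo 2.0 luminescence and scaled as inhibition from 0 (vehicle wells) to 1 (blank wells). Combination Emax is the second-highest inhibition in the matrix; Bliss excess is observed combination effect minus expected EA + EB − EA·EB, EA and EB being single-agent effects.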

[2] = test system: SW48 (Colorectal Carcinoma); experiment: as above
In short: as §1

[3] = test system: P31-FUJ (Acute Myeloid Leukemia); experiment: as above
In short: as §1

[4] = test system: DOK (Oral Cavity Carcinoma); experiment: as above
In short: as §1

[5] = test system: NOMO-1 (Acute Myeloid Leukemia); experiment: as above
In short: as §1

[6] = test system: FU-OV-1 (Ovarian Carcinoma); experiment: as above
In short: as §1

[7] = test system: YT (Other Blood Carcinomas); experiment: as above
In short: as §1

[8] = test system: CAL-39 (Other Solid Carcinomas); experiment: Bliss excess, mean over the matrix (fraction); higher = more synergy
In short: as §1

MSTO-211H (Mesothelioma) = experiment: as above
In short: as §1

[9] = test system: SW48 (Colorectal Carcinoma); experiment: as above
In short: as §1

[10] = test system: SK-LMS-1 (Other Solid Carcinomas); experiment: as above
In short: as §1

[11] = test system: MEG-01 (Chronic Myelogenous Leukemia); experiment: as above
In short: as §1

[12] = test system: P31-FUJ (Acute Myeloid Leukemia); experiment: as above
In short: as §1

[13] = test system: SLVL (B-Cell Non-Hodgkin's Lymphoma); experiment: as above
In short: as §1

SK-MEL-1 (Melanoma) = experiment: as above
In short: as §1

EW-22 (Ewing's Sarcoma) = experiment: as above
In short: as §1

[14] = test system: HLE (Hepatocellular Carcinoma); experiment: as above
In short: as §1

[15] = test system: SW948 (Colorectal Carcinoma); experiment: as above
In short: as §1

[16] = test system: BICR78 (Oral Cavity Carcinoma); experiment: as above
In short: as §1

[17] = test system: FU-OV-1 (Ovarian Carcinoma); experiment: as above
In short: as §1
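Throughout, for Bliss excess, mean over the matrix: after 72 h of two-drug dosing.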

| SMILES | combination Emax [1] | combination Emax [2] | combination Emax [3] | combination Emax [4] | combination Emax [5] | combination Emax [6] | combination Emax [7] | Bliss excess [8] | Bliss excess (MSTO-211H (Mesothelioma)) | Bliss excess [9] | Bliss excess [10] | Bliss excess [11] | Bliss excess [12] | Bliss excess [13] | Bliss excess (SK-MEL-1 (Melanoma)) | Bliss excess (EW-22 (Ewing's Sarcoma)) | Bliss excess [14] | Bliss excess [15] | Bliss excess [16] | Bliss excess [17] |
| --- | --- | --- | --- | --- | --- | --- | --- | --- | --- | --- | --- | --- | --- | --- | --- | --- | --- | --- | --- | --- |
| Cc1c2c(nn1C)CSCc1cc(n(C)n1)CSc1cc(c3ccccc3c1)OCCCc1c(C(=O)O)n(C)c3c-2c(Cl)ccc13 [AZD5991] + CC(=O)O[C@H]1C(=O)[C@@]2(C)[C@H]([C@H](OC(=O)c3ccccc3)[C@]3(O)C[C@H](OC(=O)[C@H](O)[C@@H](NC(=O)c4ccccc4)c4ccccc4)C(C)=C1C3(C)C)[C@]1(OC(C)=O)CO[C@@H]1C[C@@H]2O [Paclitaxel] (first compound max 1 µM, 7x7, partner max 3 µM) | 0.994 | 0.994 | 1 | 0.977 | 1 | 0.474 | 1 | -0.0154 | 0.0035 | -0.0091 | -0.0569 | 0.12 | -0.0253 | -0.0181 | -0.0045 | -0.0122 | -0.0411 | -0.0421 | -0.0412 | 0.0262 |
| O=C(c1cc(Cc2n[nH]c(=O)c3ccccc23)ccc1F)N1CCN(C(=O)C2CC2)CC1 [Olaparib] + CC1(C)CCC(CN2CCN(c3ccc(C(=O)NS(=O)(=O)c4ccc(NCC5CCOCC5)c([N+](=O)[O-])c4)c(Oc4cnc5[nH]ccc5c4)c3)CC2)=C(c2ccc(Cl)cc2)C1 [Venetoclax] (first compound max 10 µM, 7x7, partner max 1 µM) | 0.0578 | 0.175 | 0.166 | 0.108 | 0.383 | 0.199 | 0.276 | -0.0425 | -0.0264 | -0.0239 | -0.012 | -0.0377 | -0.0121 | 0.0864 | -0.023 | 0.0348 | -0.0308 | -0.0528 | -0.0733 | -0.0467 |
| Cc1c2c(nn1C)CSCc1cc(n(C)n1)CSc1cc(c3ccccc3c1)OCCCc1c(C(=O)O)n(C)c3c-2c(Cl)ccc13 [AZD5991] + CS(=O)(=O)CCNCc1ccc(-c2ccc3ncnc(Nc4ccc(OCc5cccc(F)c5)c(Cl)c4)c3c2)o1 [Lapatinib] (first compound max 1 µM, 7x7, partner max 10 µM) | 0.998 | 0.649 | 0.985 | 0.987 | 0.88 | 0.42 | 1 | 0.0372 | 0.0121 | 0.0213 | -0.0101 | -0.0318 | -0.0445 | 0.0502 | 0.026 | -0.0028 | 0.0311 | -0.0171 | -0.0065 | -0.0179 |
| Cc1cc2ncnn2cc1Nc1ncc2c(n1)n(C1CCOCC1)c(=O)n2C [AZD7648] + COc1cc([C@@H]2c3cc4c(cc3[C@@H](O[C@@H]3O[C@@H]5CO[C@@H](C)O[C@H]5[C@H](O)[C@H]3O)[C@H]3COC(=O)[C@H]23)OCO4)cc(OC)c1O [Etoposide] (first compound max 10 µM, 7x7, partner max 10 µM) | 0.701 | 0.883 | 0.967 | 0.572 | 0.98 | 0.603 | 0.974 | 0.0364 | 0.0624 | 0.0487 | 0.172 | 0.102 | 0.101 | 0.0824 | 0.0651 | 0.112 | 0.116 | -0.0456 | 0.0789 | -0.0047 |
| Cc1c2c(nn1C)CSCc1cc(n(C)n1)CSc1cc(c3ccccc3c1)OCCCc1c(C(=O)O)n(C)c3c-2c(Cl)ccc13 [AZD5991] + Nc1ccn([C@@H]2O[C@H](CO)[C@@H](O)C2(F)F)c(=O)n1 [Gemcitabine] (first compound max 1 µM, 7x7, partner max 0.3 µM) | 0.899 | 0.822 | 0.992 | 0.684 | 0.997 | 0.196 | 1 | 0.0269 | -0.0131 | -0.0377 | -0.009 | -0.0412 | 0.0115 | -0.014 | -0.0226 | -0.0071 | 0.0249 | 0.0016 | -0.0851 | -0.0321 |
| CN(CCO)CC[C@H](CSc1ccccc1)Nc1ccc(S(=O)(=O)NC(=O)c2ccc(N3CCC([C@@H](O)c4ccccc4-c4ccc(Cl)cc4)CC3)cc2)cc1S(=O)(=O)C(F)(F)F [AZD4320] + CC(=O)O[C@H]1C(=O)[C@@]2(C)[C@H]([C@H](OC(=O)c3ccccc3)[C@]3(O)C[C@H](OC(=O)[C@H](O)[C@@H](NC(=O)c4ccccc4)c4ccccc4)C(C)=C1C3(C)C)[C@]1(OC(C)=O)CO[C@@H]1C[C@@H]2O [Paclitaxel] (first compound max 1 µM, 7x7, partner max 3 µM) | 1 | 1 | 1 | 0.99 | 0.985 | 0.716 | 1 | 0.0298 | 0.105 | -0.003 | 0.0954 | -0.0006 | -0.0004 | 0.032 | 0.0354 | 0.0397 | -0.0036 | -0.0074 | 0.0354 | 0.0924 |
